{"source": "the NIST ThermoML archive (doi:10.1016/j.fluid.2016.02.013)", "settings": "101.33 kPa, Liquid; for viscosity: Concentric cylinders viscometry; for mass density: Vibrating tube method; for electrical conductivity: impedance analyzer", "note": "± gives the expanded uncertainty stated by the source."}
{"compound": "CCCC[P+](CCCC)(CCCC)CCCC.O=C([O-])[C@@H]1CCCN1", "note": "[tetrabutylphosphonium L-prolinate]", "values": [{"measurement": "viscosity", "setting": "298.15 K", "result": "1025 ± 43", "unit": "mPa·s"}, {"measurement": "mass density", "setting": "298.15 K", "result": "971.1 ± 0.8", "unit": "kg/m3"}, {"measurement": "electrical conductivity", "setting": "298.15 K", "result": 0.00727, "unit": "S/m"}, {"measurement": "viscosity", "setting": "303.15 K", "result": "692.8 ± 26", "unit": "mPa·s"}, {"measurement": "mass density", "setting": "303.15 K", "result": "968.2 ± 0.8", "unit": "kg/m3"}, {"measurement": "electrical conductivity", "setting": "303.15 K", "result": 0.0105, "unit": "S/m"}, {"measurement": "viscosity", "setting": "313.15 K", "result": "343.6 ± 9.6", "unit": "mPa·s"}, {"measurement": "mass density", "setting": "313.15 K", "result": "962.38 ± 0.79", "unit": "kg/m3"}, {"measurement": "electrical conductivity", "setting": "313.15 K", "result": "0.0201 ± 0.04", "unit": "S/m"}, {"measurement": "viscosity", "setting": "323.15 K", "result": "186.1 ± 3.8", "unit": "mPa·s"}, {"measurement": "mass density", "setting": "323.15 K", "result": "956.46 ± 0.79", "unit": "kg/m3"}, {"measurement": "electrical conductivity", "setting": "323.15 K", "result": "0.0354 ± 0.04", "unit": "S/m"}, {"measurement": "viscosity", "setting": "333.15 K", "result": "108.7 ± 1.6", "unit": "mPa·s"}, {"measurement": "mass density", "setting": "333.15 K", "result": "950.54 ± 0.78", "unit": "kg/m3"}, {"measurement": "electrical conductivity", "setting": "333.15 K", "result": "0.0584 ± 0.04", "unit": "S/m"}, {"measurement": "viscosity", "setting": "343.15 K", "result": "67.74 ± 0.74", "unit": "mPa·s"}, {"measurement": "mass density", "setting": "343.15 K", "result": "944.63 ± 0.77", "unit": "kg/m3"}, {"measurement": "electrical conductivity", "setting": "343.15 K", "result": "0.0907 ± 0.04", "unit": "S/m"}, {"measurement": "viscosity", "setting": "353.15 K", "result": "44.5 ± 0.47", "unit": "mPa·s"}, {"measurement": "mass density", "setting": "353.15 K", "result": "938.75 ± 0.77", "unit": "kg/m3"}, {"measurement": "electrical conductivity", "setting": "353.15 K", "result": "0.134 ± 0.04", "unit": "S/m"}, {"measurement": "viscosity", "setting": "363.15 K", "result": "30.61 ± 0.33", "unit": "mPa·s"}, {"measurement": "mass density", "setting": "363.15 K", "result": "932.9 ± 0.76", "unit": "kg/m3"}]}
